Laboratory results published in PubChem BioAssay (NCI).
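Dose response: 5 concentrations. Exposure: 48 h. Format: 96-well plates. Endpoint: linear interpolation; highest concentration if not reached. TGI is the concentration that stops growth completely.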

Assays:
Test in all cases: DTP human tumour cell line panel, 48 h
[1] = tested on: A549 NSCLC
[2] = tested on: HCC-2998 colon
[3] = tested on: HCT-116 colon
[4] = tested on: KM12 colon
[5] = tested on: MALME-3M melanoma
[6] = tested on: MCF7 breast
[7] = tested on: MDA-MB-231 breast
[8] = tested on: NCI/ADR-RES ovarian
[9] = tested on: OVCAR-3 ovarian
[10] = tested on: OVCAR-4 ovarian
[11] = tested on: OVCAR-8 ovarian
[12] = tested on: PC-3 prostate
[13] = tested on: RXF 393 renal
[14] = tested on: SF-268 CNS
[15] = tested on: SK-OV-3 ovarian
[16] = tested on: T-47D breast
[17] = tested on: TK-10 renal
[18] = tested on: UACC-257 melanoma
[19] = tested on: HL-60(TB) leukemia

SMILES	TGI [1] [µM]	TGI [2] [µM]	TGI [3] [µM]	TGI [4] [µM]	TGI [5] [µM]	TGI [6] [µM]	TGI [7] [µM]	TGI [8] [µM]	TGI [9] [µM]	TGI [10] [µM]	TGI [11] [µM]	TGI [12] [µM]	TGI [13] [µM]	TGI [14] [µM]	TGI [15] [µM]	TGI [16] [µM]	TGI [17] [µM]	TGI [18] [µM]	TGI [19] [µM]
CSc1nc(=O)cnn1C	> 100	> 100	> 100	> 100	> 100	> 100	> 100	> 100	> 100	> 100	> 100	> 100	> 100	> 100	> 100	> 100	> 100	> 100	–
O=C1NCN(c2ccccc2)C12CCN(CC1COc3ccccc3O1)CC2 (stereo unspecified)	> 100	> 100	> 100	–	> 100	> 100	> 100	> 100	> 100	> 100	> 100	> 100	96.5	> 100	> 100	> 100	> 100	> 100	> 100
Cn1nnc2c3c(N(CCO)CCO)ccnc3ccc21	> 100	91.2	> 100	> 100	> 100	> 100	> 100	> 100	> 100	> 100	> 100	> 100	> 100	> 100	> 100	> 100	> 100	> 100	–
Cc1[nH]c(-c2ccccc2)c2nc(N(C)C)oc(=O)c12	> 100	> 100	> 100	> 100	> 100	> 100	> 100	> 100	–	> 100	> 100	> 100	> 100	> 100	> 100	> 100	> 100	> 100	> 100
C1CCCN(NC2=NCCO2)CC1	> 100	> 100	> 100	> 100	> 100	> 100	> 100	> 100	> 100	> 100	> 100	> 100	> 100	–	–	> 100	> 100	> 100	> 100
Cc1nn(C(=O)c2ccncc2)c2c1C(c1ccccc1[N+](=O)[O-])SC(N)=N2 (stereo unspecified)	> 10	> 10	> 10	> 10	> 10	> 10	> 10	> 10	> 10	> 10	> 10	> 10	> 10	> 10	–	> 10	> 10	> 10	> 10
CCOC(=O)c1nc2ccc(C(F)(F)F)cc2nc1Nc1ccc(OC)cc1	> 100	> 100	> 100	> 100	> 100	> 100	50.6	> 100	> 100	49.1	> 100	> 100	70.1	> 100	–	> 100	> 100	> 100	> 100
O=C1Oc2ccccc2C(=O)/C1=C/N1C(=O)CNC1=S	> 100	> 100	> 100	> 100	–	> 100	> 100	> 100	> 100	> 100	> 100	> 100	> 100	> 100	> 100	> 100	> 100	> 100	> 100
O=C1OC([C@H](O)c2cccnc2)c2ccccc21 (stereo partly specified)	> 10	> 10	> 10	> 10	–	> 10	> 10	> 10	> 10	> 10	> 10	> 10	> 10	> 10	> 10	> 10	> 10	> 10	> 10
Cc1cn(C2CC(N=[N+]=[N-])C(COP(=O)(O)OCC3OC(n4cc(F)c(=O)[nH]c4=O)CC3O)O2)c(=O)[nH]c1=O (stereo unspecified)	> 100	> 100	> 100	> 45.5	> 20.2	> 100	> 100	> 24.6	> 100	–	> 100	> 100	> 100	> 100	> 100	> 100	> 100	> 100	> 100
CC(=O)N1C(Nc2nccs2)CCN1c1ccccc1 (stereo unspecified)	> 10	> 10	> 10	–	> 10	> 10	> 10	> 10	> 10	> 10	> 10	> 10	> 10	> 10	–	> 10	> 10	> 10	> 10
C=CCN1CCC(c2cc(C(=O)OCC)[nH]c2-c2cc(C)no2)C1=O (stereo unspecified)	> 100	> 100	> 100	> 100	> 100	> 100	> 100	> 100	> 100	> 100	> 100	> 100	> 100	> 100	> 100	> 100	–	> 100	> 100
C1CSCC2(COC2)CSCCSCC2(COC2)CS1	> 100	> 100	> 100	> 100	–	> 100	> 100	> 100	> 100	> 100	> 100	> 100	–	> 100	> 100	> 100	> 100	> 100	> 100
